Results on one molecule are retold here after patent US20040219201A1, “Tempamine compositions and methods of use” (priority 2001, published 2004).

SMILES strings stand for the structures. A value given as a limit tells only on which side of the number the result lay.

The test system of one series is MCF-7 cancer cells. Briefly: Apoptosis detection by merocyanine-540 staining and flow cytometry. Type of series: cell-based, human. As to conditions: MCF-7, 1 mM tempamine, 24 hours; 14% without treatment. The text has this: In another study, the MCF-7 cell line was used to investigate the mechanism of growth inhibition by tempamine. Untreated cells and tempamine-treated cells (24-hours exposure) were contacted with merocyanine-540. Merocyanine-540 binds selectively to phophatidylserine, which appears at the external surface of the cell at the beginning of apoptosis and is therefore one of the apoptotic markers (Reid, S., et al., J. lmmnol. Methods 192:43 (1996)). After interaction with merocyanine-540, cells were analyzed by flow cytometry as described in the methods section below. […] After the 24 hour treatment period, the cells were trypsinized, stained with merocyanine-540 and analyzed by flow cytometry. […]
Apoptosis was assessed by flow cytometry (FACScan). 1×10^6 cells were removed from culture, washed with PBS, and stained with merocyanine-540 (Reid, S., et al., J. Immunol. Methods 192:43 (1996). Briefly, the cell pellet was resuspended in 500 μl PBS. 2.5 μl of a 1 mg/ml solution of merocyanine-540 was added to the cells, incubated for 2 min at room temperature in the dark. The cells were washed, resuspended in 1 ml PBS, and run immediately on a fluorescence-activated cell-sorting flow cytometer (Vantage, Becton Dickinson, Rutherford, N.J., USA).
On the technique in general: A flow cytometer gives signals particle by particle.

The subject of series [1] is M-109R (doxorubicin-resistant human breast carcinoma). Briefly: Cytotoxicity assay (methylene blue); tempamine alone or doxorubicin plus tempamine. Type of series: cell-based. Here is the method: (§1) As described in Example 1, the cytotoxicity of tempamine was determined on three cell lines, MCF-7 (human breast adenocarcinoma), M-109S (doxorubicin-sensitive human breast carcinoma), and M-109R (doxorubicin-resistant human breast carcinoma). The effect of free tempamine on cell proliferation was determined by a methylene blue assay as described in Example 1B.
(§2) In yet another aspect, the invention contemplates administration of tempamine in combination with chemotherapeutic agent. […] Doxorubicin was chosen as a model chemotherpeutic agent. The enhancement of doxorubicin cytotoxicity by tempamine was tested on three cell lines, as described in Example 1A. A cytotoxicity assay as described in Example 1B was used. Two of the cell lines, MCF-7 and M-109S, were doxorubicin-sensitive lines and one cell line, M-109R, was doxorubicin resistant. MCF-7 cells are more sensitive to tempamine (100 μM caused 75% growth inhibition), but are less sensitive to doxorubicin, than are M-109S cells.
(§3) MCF-7 (human breast adenocarcinoma), M-109S (doxorubicin-sensitive human breast carcinoma), and M-109R (doxorubicin-resistant human breast carcinoma) were maintained in RPMI medium (Biological Industries, Beit HaEmek, Israel) supplemented with 10% fetal calf serum (FCS). The cell lines were maintained under standard culture conditions at 37° C. in a humidified 5% CO2 atmosphere.
(§4) The effect of tempamine on cell proliferation was determined by the methylene blue assay (Horowitz, A. T., et al., Biochim BiophysActa. 1109:203, (1992)). Briefly, cells were seeded onto 96-well plates (MCF cells at a density of 6×10^3 cells per well, and M-109S and M-109R at a density of 1.5×10^3 cells per well) and allowed to grow for 24 hours prior to treatment with different concentrations of tempamine. After the addition of tempamine (5×10^−5 to 4×10^−4), the cells were incubated in RPMI +10% FCS for four days without change of medium. Then the cells were fixed with 2.5% glutaraldehyde, stained with methylene blue and assayed spectrophotometrically.

The subject of series [2] is M-109S (doxorubicin-sensitive human breast carcinoma). The description is as above. The class given is cell-based. As to conditions: Homo sapiens, read-out: IC50 (cytotoxicity). Here is the method: as §1, §2, §3, §4
Series [3] is described as follows: Pharmacokinetics and biodistribution in C26 tumor-bearing BALB/c mice. Type of series: in vivo. As for the experimental part:
The pharmacokinetics and biodistribution of liposome-entrapped tempamine and of free tempamine were determined in healthy and in tumor-bearing mice. […] The liposome formulation included a lipid label to allow analysis of the distribution of the liposome lipids. The tempamine levels in blood and tissues were measured using the EPR technique set forth in the Methods section.
8 to 12-week-old BALB/c female mice, obtained through the Animal Breeding House of the Hebrew University (Jerusalem, Israel), were used throughout the study. Animals were housed at Hadassah Medical Center with food and water ad libitum. All procedures were in accordance with the standards required by the Institutional Animal Care and Use Cornmittee of the Hebrew University and Hadassah Medical Organization. Each mouse was injected with one inoculum of tumor cells (1×10^6 C26 cells) subcutaneously into the left flank. […] Phospholipid dose was 11 mg (14.7 μmole)/mouse (377 mg (514 μmole)/kg body weight). At 1, 4, 8, 24, and 48 hours after the injection, the animals were anesthetized with ether inhalation, bled by eye enucleation, and immediately sacrificed for removal of liver, lung, spleen, kidney, and tumor. Each time point consisted of 3 mice. Plasma was separated by centrifugation.
To measure the total tempamine concentration (encapsulated and free) in the organs, the liposomes were solubilized by homogenization in a Polytron homogenizer (Kinematica, Lutzern, Switzerland) in 2% Triton X-100 (1:2, organ:Triton X-100 solution). The homogenized mixture was cooled and heated several times to destroy the lipid membrane (Barenholz, Y., et al., in LIPOSOME TECHNOLOGY, G. Gregoriadis (Ed.), 2nd Edn., Vol. I, CRC Press, Boca Raton, pp. 527-616, (1993)). The plasma samples were mixed 1:1 with 2% Triton X-100 to give the 1% Triton X-100 in the tested sample and also cooled and heated several times. These conditions were effective to achieve a release of all entrapped tempamine from intact liposomes.
For deterrmination of the total concentration of nitroxide+hydroxylamine, potassium ferricyanide at a final concentration of 2-3 mM (depending on the tested tissue) was added to all the samples (plasma and organ homogenates) to oxidize the hydroxylamine to intact nitroxide.
From the samples prepared as described above in section F, duplicates of 100 μl were burned in a Sample Oxidizer (Model 307, Packard Instrument Co., Meridien, Conn.) and left overnight in a dark, cool place. The samples were then measured by β-counting (KONTRON Liquid Scintillation Counter).

In series [4] the test system is MCF-7 (human breast adenocarcinoma). Kind of series: Cytotoxicity assay (methylene blue); nitroxides alone or doxorubicin plus tempamine. The class given is cell-based. As for the experimental part: as §1
FIG. 4 is a plot comparing the percent survival of MCF-7 human breast carcinoma cells at various doses of tempamine (closed circles) and tempol (open circles) in vitro. The cells were analyzed after 72 hours of exposure to the nitroxides. Tempamine and tempol cell growth inhibitory activities were of similar magnitude.
as §2, §3, §4

Consider `CC1(C)CC(N)CC(C)(C)N1[O]` [tempamine, 2,2,6,6-tetramethylpiperidine-4-amino-1-oxyl], for which the “fluorescently labeled (apoptotic) cells” value in the series on MCF-7 cancer cells was 77%. For the same molecule, the half-maximal inhibitory concentration (IC50) is ~700 µM in series [1] (Homo sapiens, read-out: IC50 (cytotoxicity)); ~700 µM in series [2]; 210 µM in series [4] (Homo sapiens, MCF7, 72 h, read-out: IC50 (cell growth inhibition)). Moreover, the “cell sensitivity to doxorubicin” value in series [1] (M-109R, addition of 200 μM tempamine) was “enhanced cell sensitivity to doxorubicin”. In series [3] (female, BALB/c, mouse, intravenous, 18 mg/kg, free tempamine, 4 hour time point, read-out: tempamine level in other organs (detection minimum)), the concentration at 4 h is < 100 nM. Besides, in series [3] (female, BALB/c, mouse, plasma, iv, tumor-bearing mice, 18 mg/kg i.v.), the AUC turned out to be 170 ± 5 µg·h/mL. Further, the clearance in series [3] (female, BALB/c, mouse, plasma, iv, tumor-bearing mice, 18 mg/kg i.v., read-out: CL (ml/h), clearance rate (converted)) was 3.2 mL/h. For the same molecule, the half-life in series [3] (female, BALB/c, mouse, plasma, iv, tumor-bearing mice, 18 mg/kg i.v., read-out: T1/2 (h), blood circulation half-life (converted)) was 0.15 ± 0.009 h. In series [3] (female, BALB/c, mouse, plasma, iv, tumor-bearing mice, 18 mg/kg i.v., read-out: Vss (ml), volume of distribution), the Vd came to 55 ± 15.7 mL. The “tempamine in liver and spleen” value in series [3] (free tempamine, 1 hour and 4 hours after injection) is on record as “traces”. Moreover, the “half-life of tempamine in plasma” value in series [3] (mouse plasma) is on record as “several minutes”. Besides, the growth inhibition in series [4] (MCF-7, 100 μM tempamine) is given as 75%.

For orientation: IC50 means the concentration that gives 50% inhibition. What is called AUC is concentration integrated over time.
